Assay results: patent US20230085307A1, “PYRIDAZINONE COMPOUND AND HERBICIDE” (NISSAN CHEMICAL CORPORATION, priority 2019, published 2023)

Assays:
late watergrass = test: Test Example 1: herbicidal activity, application before weed generation under submerged conditions (Table 16, symbol A); assay type: in vivo, late watergrass (Echinochloa oryzicola); settings: amount of applied herbicide 320 g/ha
Procedure, shortened: (§1)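 Alluvial soil was flooded to 4 cm depth, weed seeds were sown mixed and 2.5-leaf rice seedlings were transplanted. On sowing day, the compound's emulsion, diluted in water to a set dose, was applied to the water surface. Plants grew at 25–30 °C and were scored 0–5 after three weeks.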

Japanese bulrush [1] = test: Test Example 1: herbicidal activity, application before weed generation under submerged conditions (Table 16, symbol B); assay type: in vivo, Japanese bulrush (Schoenoplectus juncoides); settings: amount of applied herbicide 320 g/ha
Procedure, shortened: as §1

Japanese bulrush [2] = test: Test Example 2: herbicidal activity, application during weed generation under submerged conditions (Table 17, symbol B); assay type: in vivo, Japanese bulrush (Schoenoplectus juncoides); settings: AAH 320 g/ha; application during weed generation, submerged conditions
Procedure, shortened: (§2)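 Effect on each weed is rated three weeks post-treatment, using the same scoring criteria as the preceding test. Plants grow from mixed-sown seed in flooded alluvial soil (4 cm water) at 25° C. to 30° C., and are treated at one to two leaves with diluted emulsion dropped onto the water.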

oval-leafed pondweed = test: Test Example 2: herbicidal activity, application during weed generation under submerged conditions (Table 17, symbol C); assay type: in vivo, oval-leafed pondweed (Monochoria vaginalis); settings: AAH 320 g/ha; application during weed generation, submerged conditions
Procedure, shortened: as §2

green foxtail [3] = test: Test Example 4: herbicidal effect by soil treatment (Table 19, symbol G); assay type: in vivo, green foxtail (Setaria viridis); settings: amount of applied herbicide 320 g/ha
Procedure, shortened: (§3)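 In this soil treatment, the formulated compound reached the seeds only through the soil: seeds were buried about 1.5 cm deep in sterilized diluvial soil, then the diluted emulsion was sprayed over the surface. After three weeks at 25° C. to 30° C. in a greenhouse, effects were graded on criteria from an earlier test.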

wild oat [4] = test: Test Example 4: herbicidal effect by soil treatment (Table 19, symbol I); assay type: in vivo, wild oat (Avena fatua); settings: amount of applied herbicide 320 g/ha
Procedure, shortened: as §3

blackgrass [5] = test: Test Example 4: herbicidal effect by soil treatment (Table 19, symbol J); assay type: in vivo, blackgrass (Alopecurus myosuroides); settings: amount of applied herbicide 320 g/ha
Procedure, shortened: as §3

Italian ryegrass [6] = test: Test Example 4: herbicidal effect by soil treatment (Table 19, symbol K); assay type: in vivo, Italian ryegrass (Lolium multiflorum); settings: amount of applied herbicide 320 g/ha
Procedure, shortened: as §3

velvetleaf [7] = test: Test Example 4: herbicidal effect by soil treatment (Table 19, symbol M); assay type: in vivo, velvetleaf (Abutilon theophrasti); settings: amount of applied herbicide 320 g/ha
Procedure, shortened: as §3

redroot pigweed = test: Test Example 4: herbicidal effect by soil treatment (Table 19, symbol N); assay type: in vivo, redroot pigweed (Amaranthus retroflexus); settings: amount of applied herbicide 320 g/ha
Procedure, shortened: as §3

lambsquarters = test: Test Example 4: herbicidal effect by soil treatment (Table 19, symbol O); assay type: in vivo, lambsquarters (Chenopodium album); settings: amount of applied herbicide 320 g/ha
Procedure, shortened: as §3

persian speedwell = test: Test Example 4: herbicidal effect by soil treatment (Table 19, symbol R); assay type: in vivo, Persian speedwell (Veronica persica); settings: amount of applied herbicide 320 g/ha
Procedure, shortened: as §3

southern crabgrass = test: Test Example 5: herbicidal effect by foliage application, plastic box (Table 20, symbol F); assay type: in vivo, southern crabgrass (Digitaria ciliaris); settings: for F: southern crabgrass, herbicidal effect grade: foliage application, 320 g/ha, three weeks after application
Procedure, shortened: (§4)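 Plants were sown into sterilized diluvial soil under about 1.5 cm cover and kept in a greenhouse at 25° C. to 30° C. Fourteen days on, foliage received an even spray of the diluted emulsion. Herbicidal or crop effect was judged three weeks afterwards.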

green foxtail [8] = test: Test Example 5: herbicidal effect by foliage application, plastic box (Table 20, symbol G); assay type: in vivo, green foxtail (Setaria viridis); settings: for G: green foxtail, herbicidal effect grade: foliage application, 320 g/ha, three weeks after application
Procedure, shortened: as §4

barnyard grass = test: Test Example 5: herbicidal effect by foliage application, plastic box (Table 20, symbol H); assay type: in vivo, barnyard grass (Echinochloa crus-galli); settings: for H: barnyard grass, herbicidal effect grade: foliage application, 320 g/ha, three weeks after application
Procedure, shortened: as §4

wild oat [9] = test: Test Example 5: herbicidal effect by foliage application, plastic box (Table 20, symbol I); assay type: in vivo, wild oat (Avena fatua); settings: for I: wild oat, herbicidal effect grade: foliage application, 320 g/ha, three weeks after application
Procedure, shortened: as §4

blackgrass [10] = test: Test Example 5: herbicidal effect by foliage application, plastic box (Table 20, symbol J); assay type: in vivo, blackgrass (Alopecurus myosuroides); settings: for J: blackgrass, herbicidal effect grade: foliage application, 320 g/ha, three weeks after application
Procedure, shortened: as §4

Italian ryegrass [11] = test: Test Example 5: herbicidal effect by foliage application, plastic box (Table 20, symbol K); assay type: in vivo, Italian ryegrass (Lolium multiflorum); settings: for K: Italian ryegrass, herbicidal effect grade: foliage application, 320 g/ha, three weeks after application
Procedure, shortened: as §4

windgrass = test: Test Example 5: herbicidal effect by foliage application, plastic box (Table 20, symbol L); assay type: in vivo, windgrass (Apera spica-venti); settings: for L: windgrass, herbicidal effect grade: foliage application, 320 g/ha, three weeks after application
Procedure, shortened: as §4

velvetleaf [12] = test: Test Example 5: herbicidal effect by foliage application, plastic box (Table 20, symbol M); assay type: in vivo, velvetleaf (Abutilon theophrasti); settings: for M: velvetleaf, herbicidal effect grade: foliage application, 320 g/ha, three weeks after application
Procedure, shortened: as §4

chickweed = test: Test Example 5: herbicidal effect by foliage application, plastic box (Table 20, symbol P); assay type: in vivo, common chickweed (Stellaria media); settings: for P: chickweed, herbicidal effect grade: foliage application, 320 g/ha, three weeks after application
Procedure, shortened: as §4

[13] = amount of applied herbicide 320 g/ha, foliage application after 14-day growth, evaluated three weeks after application

Structure (SMILES)	Herbicidal effect, A: late watergrass (late watergrass)	Herbicidal effect, B: Japanese bulrush (Japanese bulrush [1])	herbicidal effect rating, B: Japanese bulrush (Japanese bulrush [2])	herbicidal effect rating, C: oval-leafed pondweed (oval-leafed pondweed)	G: green foxtail, herbicidal effect grade (green foxtail [3])	I: wild oat, herbicidal effect grade (wild oat [4])	J: blackgrass, herbicidal effect grade (blackgrass [5])	K: Italian ryegrass, herbicidal effect grade (Italian ryegrass [6])	M: velvetleaf, herbicidal effect grade (velvetleaf [7])	N: redroot pigweed, herbicidal effect grade (redroot pigweed)	O: lambsquarters, herbicidal effect grade (lambsquarters)	R: persian speedwell, herbicidal effect grade (persian speedwell)	F: southern crabgrass, herbicidal effect grade (southern crabgrass)	G: green foxtail, herbicidal effect grade (green foxtail [8])	H: barnyard grass, herbicidal effect grade (barnyard grass)	I: wild oat, herbicidal effect grade (wild oat [9])	J: blackgrass, herbicidal effect grade (blackgrass [10])	K: Italian ryegrass, herbicidal effect grade (Italian ryegrass [11])	L: windgrass, herbicidal effect grade (windgrass)	M: velvetleaf, herbicidal effect grade (velvetleaf [12])	also measured
CCCC(=O)Oc1c(C)nn(C)c(=O)c1-c1c(-c2ccc(C#N)cc2)sc2cc(F)c(F)cc12 [5-026]	3 (Herbicidal rate of 40% or more and less than 70%)	0 (Herbicidal rate of 5% or less (almost no effect))	0 (Herbicidal rate of 5% or less (almost no effect))	0 (Herbicidal rate of 5% or less (almost no effect))	0 (Herbicidal rate of 5% or less (almost no effect))	0 (Herbicidal rate of 5% or less (almost no effect))	0 (Herbicidal rate of 5% or less (almost no effect))	0 (Herbicidal rate of 5% or less (almost no effect))	0 (Herbicidal rate of 5% or less (almost no effect))	4 (Herbicidal rate of 70% or more and less than 90%)	4 (Herbicidal rate of 70% or more and less than 90%)	4 (Herbicidal rate of 70% or more and less than 90%)	–	–	–	–	–	–	–	–	Herbicidal effect by foliage application, F: southern crabgrass (southern crabgrass; [13]): 0 (Herbicidal rate of 5% or less (almost no effect)); Herbicidal effect by foliage application, G: green foxtail (green foxtail [8]; [13]): 0 (Herbicidal rate of 5% or less (almost no effect)); Herbicidal effect by foliage application, H: barnyard grass (barnyard grass; [13]): 0 (Herbicidal rate of 5% or less (almost no effect)); Herbicidal effect by foliage application, I: wild oat (wild oat [9]; [13]): 1 (Herbicidal rate of 5% or more and less than 20%); Herbicidal effect by foliage application, J: blackgrass (blackgrass [10]; [13]): 0 (Herbicidal rate of 5% or less (almost no effect)); Herbicidal effect by foliage application, K: Italian ryegrass (Italian ryegrass [11]; [13]): 0 (Herbicidal rate of 5% or less (almost no effect)); Herbicidal effect by foliage application, L: windgrass (windgrass; [13]): 0 (Herbicidal rate of 5% or less (almost no effect)); Herbicidal effect by foliage application, M: velvetleaf (velvetleaf [12]; [13]): 3 (Herbicidal rate of 40% or more and less than 70%); Herbicidal effect by foliage application, P: chickweed (chickweed; [13]): 5 (Herbicidal rate of 90% or more (almost completely withered))
CCOC(=O)Oc1c(C)nn(C)c(=O)c1-c1c(-c2ccccc2OC)sc2cc(F)ccc12 [3-024]	3 (Herbicidal rate of 40% or more and less than 70%)	0 (Herbicidal rate of 5% or less (almost no effect))	3 (Herbicidal rate of 40% or more and less than 70%)	3 (Herbicidal rate of 40% or more and less than 70%)	3 (Herbicidal rate of 40% or more and less than 70%)	3 (Herbicidal rate of 40% or more and less than 70%)	1 (Herbicidal rate of 5% or more and less than 20%)	1 (Herbicidal rate of 5% or more and less than 20%)	3 (Herbicidal rate of 40% or more and less than 70%)	5 (Herbicidal rate of 90% or more (almost completely withered))	4 (Herbicidal rate of 70% or more and less than 90%)	0 (Herbicidal rate of 5% or less (almost no effect))	1 (Herbicidal rate of 5% or more and less than 20%)	5 (Herbicidal rate of 90% or more (almost completely withered))	5 (Herbicidal rate of 90% or more (almost completely withered))	3 (Herbicidal rate of 40% or more and less than 70%)	4 (Herbicidal rate of 70% or more and less than 90%)	4 (Herbicidal rate of 70% or more and less than 90%)	5 (Herbicidal rate of 90% or more (almost completely withered))	5 (Herbicidal rate of 90% or more (almost completely withered))	P: chickweed, herbicidal effect grade (chickweed): 5 (Herbicidal rate of 90% or more (almost completely withered))
COc1ccccc1-c1sc2cc(OC(C)C)ccc2c1-c1c(O)c(C)nn(C)c1=O [3-101]	5 (Herbicidal rate of 90% or more (almost completely withered))	5 (Herbicidal rate of 90% or more (almost completely withered))	3 (Herbicidal rate of 40% or more and less than 70%)	2 (Herbicidal rate of 20% or more and less than 40%)	5 (Herbicidal rate of 90% or more (almost completely withered))	1 (Herbicidal rate of 5% or more and less than 20%)	4 (Herbicidal rate of 70% or more and less than 90%)	5 (Herbicidal rate of 90% or more (almost completely withered))	3 (Herbicidal rate of 40% or more and less than 70%)	4 (Herbicidal rate of 70% or more and less than 90%)	5 (Herbicidal rate of 90% or more (almost completely withered))	4 (Herbicidal rate of 70% or more and less than 90%)	5 (Herbicidal rate of 90% or more (almost completely withered))	5 (Herbicidal rate of 90% or more (almost completely withered))	5 (Herbicidal rate of 90% or more (almost completely withered))	4 (Herbicidal rate of 70% or more and less than 90%)	5 (Herbicidal rate of 90% or more (almost completely withered))	5 (Herbicidal rate of 90% or more (almost completely withered))	5 (Herbicidal rate of 90% or more (almost completely withered))	5 (Herbicidal rate of 90% or more (almost completely withered))	P: chickweed, herbicidal effect grade (chickweed): 5 (Herbicidal rate of 90% or more (almost completely withered))
